Converted amounts (≈) assume the structure as drawn.
Tests used:
Assay type in all cases: cell-based
[1] = tested on: S. aureus (CiproS); experiment: In vitro MIC, agar dilution; conditions: Staphylococcus aureus
[2] = tested on: S. aureus (CiproR); experiment: In vitro MIC, agar dilution; conditions: Staphylococcus aureus, S. aureus (CiproR), 25 isolates
[3] = tested on: S. epidermidis (CiproS); experiment: In vitro MIC, agar dilution; conditions: Staphylococcus epidermidis
[4] = tested on: S. epidermidis (CiproR); experiment: In vitro MIC, agar dilution; conditions: Staphylococcus epidermidis, S. epidermidis (CiproR), 11 isolates
[5] = tested on: S. pneumoniae (PenR); experiment: In vitro MIC, agar dilution; conditions: Streptococcus pneumoniae
[6] = tested on: S. pneumoniae (CiproR); experiment: In vitro MIC, agar dilution; conditions: Streptococcus pneumoniae; S. pneumoniae (CiproR), 3 isolates; read-out: MIC Range
[7] = tested on: S. pyogenes; experiment: In vitro MIC, agar dilution; conditions: Streptococcus pyogenes
[8] = tested on: E. faecium (CiproS); experiment: In vitro MIC, agar dilution; conditions: Enterococcus faecium, E. faecium (CiproS), 16 isolates
[9] = tested on: E. faecium (CiproR); experiment: In vitro MIC, agar dilution; conditions: Enterococcus faecium; E. faecium (CiproR), 2 isolates; read-out: MIC Range
[10] = tested on: E. faecalis (VanS); experiment: In vitro MIC, agar dilution; conditions: Enterococcus faecalis
[11] = tested on: E. coli; experiment: In vitro MIC, agar dilution; conditions: Escherichia coli, 25 isolates
How it was run: (§1)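 MIC, the lowest compound level without growth versus a drug-free BHI control plate, with faint haze or scattered colonies scored as no growth. About 10^4 CFU was replicator-spotted from 1:100 dilutions, or 1:10 for slow-growing strains, and plates were read after ~20–24 h at 35–37 °C.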

[12] = tested on: Salmonella spp.; experiment: In vitro MIC, agar dilution; conditions: 23 isolates
How it was run: as §1

[13] = tested on: Shigella spp.; experiment: microbe, parasite or virus in culture; conditions: read-out: MIC Range
[14] = tested on: Klebsiella spp.; experiment: In vitro MIC, agar dilution
[15] = tested on: C. freundii; experiment: In vitro MIC, agar dilution; conditions: Citrobacter freundii
[16] = tested on: P. mirabilis; experiment: In vitro MIC, agar dilution; conditions: Proteus mirabilis
[17] = tested on: Providencia spp.; experiment: In vitro MIC, agar dilution
[18] = tested on: Enterobacter spp.; experiment: In vitro MIC, agar dilution; conditions: Enterobacter
[19] = tested on: P. aeruginosa (CiproS); experiment: In vitro MIC, agar dilution; conditions: Pseudomonas aeruginosa
[20] = tested on: P. aeruginosa (CiproR); experiment: In vitro MIC, agar dilution; conditions: Pseudomonas aeruginosa
[21] = tested on: B. fragilis; experiment: In vitro MIC, agar dilution; conditions: Bacteroides fragilis
[22] = tested on: C. difficile; experiment: In vitro MIC, agar dilution; conditions: Clostridioides difficile
[23] = tested on: C. perfringens; experiment: microbe, parasite or virus in culture; conditions: Clostridium perfringens
[24] = tested on: H. influenzae; experiment: In vitro MIC, agar dilution; conditions: Haemophilus influenzae, H. influenzae, 18 isolates
[25] = tested on: Legionella spp.; experiment: microbe, parasite or virus in culture; conditions: Legionella
[26] = tested on: M. pneumoniae; experiment: In vitro MIC, agar dilution; conditions: Mycoplasmoides pneumoniae; M. pneumoniae, 7 isolates; read-out: MIC Range
[27] = tested on: N. gonorrhoeae; experiment: In vitro MIC, agar dilution; conditions: Neisseria gonorrhoeae
[28] = tested on: H. pylori; experiment: In vitro MIC, agar dilution; conditions: Helicobacter pylori
[29] = tested on: M. avium; experiment: In vitro MIC, agar dilution; conditions: Mycobacterium avium

NC1CCN(c2c(F)cc3c(=O)c(C(=O)O)cn(C4CC4)c3c2Cl)C1 (stereo not drawn) [Clinafloxacin, clinafloxacin]
MIC50 [1]: 0.03 µg/mL (≈ 0.082 µM) | MIC90 [1]: 0.03 µg/mL (≈ 0.082 µM) | MIC ([1]; S. aureus (CiproS), 21 isolates, read-out: MIC Range): 0.015 to 0.03 µg/mL (≈ 0.041 to 0.082 µM) | MIC50 ([2]; read-out: MIC50): 0.5 µg/mL (≈ 1.37 µM) | MIC90 ([2]; read-out: MIC90): 1 µg/mL (≈ 2.73 µM) | MIC ([2]; read-out: MIC Range): 0.25 to 2 µg/mL (≈ 0.683 to 5.47 µM) | MIC50 [3]: 0.03 µg/mL (≈ 0.082 µM) | MIC90 [3]: 0.03 µg/mL (≈ 0.082 µM) | MIC ([3]; S. epidermidis (CiproS), 23 isolates, read-out: MIC Range): 0.015 to 0.06 µg/mL (≈ 0.041 to 0.164 µM) | MIC50 ([4]; read-out: MIC50): 0.5 µg/mL (≈ 1.37 µM) | MIC90 ([4]; read-out: MIC90): 1 µg/mL (≈ 2.73 µM) | MIC ([4]; read-out: MIC Range): 0.25 to 2 µg/mL (≈ 0.683 to 5.47 µM) | MIC90 [5]: 0.25 µg/mL (≈ 0.683 µM) | MIC ([5]; read-out: MIC Range): 0.06 to 0.25 µg/mL (≈ 0.164 to 0.683 µM) | MIC50 ([5]; S. pneumoniae (PenR), 25 isolates, read-out: MIC50): 0.12 µg/mL (≈ 0.328 µM) | MIC [6]: 0.12 µg/mL (≈ 0.328 µM) | MIC90 [7]: 0.06 µg/mL (≈ 0.164 µM) | MIC ([7]; read-out: MIC Range): 0.06 to 0.12 µg/mL (≈ 0.164 to 0.328 µM) | MIC50 ([7]; S. pyogenes, 21 isolates, read-out: MIC50): 0.06 µg/mL (≈ 0.164 µM) | MIC50 ([8]; read-out: MIC50): 1 µg/mL (≈ 2.73 µM) | MIC90 ([8]; read-out: MIC90): 2 µg/mL (≈ 5.47 µM) | MIC ([8]; read-out: MIC Range): 0.5 to 8 µg/mL (≈ 1.37 to 21.9 µM) | MIC [9]: 2 to 8 µg/mL (≈ 5.47 to 21.9 µM) | MIC90 [10]: 0.25 µg/mL (≈ 0.683 µM) | MIC ([10]; read-out: MIC Range): 0.12 to 0.25 µg/mL (≈ 0.328 to 0.683 µM) | MIC50 ([10]; E. faecalis (VanS), 17 isolates, read-out: MIC50): 0.25 µg/mL (≈ 0.683 µM) | MIC [11]: 0.008 to 0.03 µg/mL (≈ 0.0219 to 0.082 µM) | MIC50 ([11]; read-out: MIC50): 0.015 µg/mL (≈ 0.041 µM) | MIC90 ([11]; read-out: MIC90): 0.015 µg/mL (≈ 0.041 µM) | MIC [12]: 0.004 to 0.25 µg/mL (≈ 0.0109 to 0.683 µM) | MIC50 ([12]; read-out: MIC50): 0.015 µg/mL (≈ 0.041 µM) | MIC90 ([12]; read-out: MIC90): 0.03 µg/mL (≈ 0.082 µM) | MIC [13]: 0.008 to 0.015 µg/mL (≈ 0.0219 to 0.041 µM) | MIC50 ([14]; Klebsiella): 0.03 µg/mL (≈ 0.082 µM) | MIC90 ([14]; Klebsiella): 0.03 µg/mL (≈ 0.082 µM) | MIC ([14]; Klebsiella spp., 29 isolates, read-out: MIC Range): 0.004 to 0.12 µg/mL (≈ 0.0109 to 0.328 µM) | MIC50 [15]: 0.03 µg/mL (≈ 0.082 µM) | MIC90 [15]: 0.12 µg/mL (≈ 0.328 µM) | MIC ([15]; read-out: MIC Range): 0.015 to 0.12 µg/mL (≈ 0.041 to 0.328 µM) | MIC50 [16]: 0.03 µg/mL (≈ 0.082 µM) | MIC90 [16]: 0.06 µg/mL (≈ 0.164 µM) | MIC ([16]; P. mirabilis, 20 isolates, read-out: MIC Range): 0.03 to 0.06 µg/mL (≈ 0.082 to 0.164 µM) | MIC90 ([17]; Providencia): 0.03 µg/mL (≈ 0.082 µM) | MIC50 ([17]; Providencia spp., 28 isolates, read-out: MIC50): 0.015 µg/mL (≈ 0.041 µM) | MIC ([17]; Providencia spp., 28 isolates, read-out: MIC Range): 0.008 to 0.12 µg/mL (≈ 0.0219 to 0.328 µM) | MIC50 [18]: 0.03 µg/mL (≈ 0.082 µM) | MIC90 [18]: 0.03 µg/mL (≈ 0.082 µM) | MIC ([18]; read-out: MIC Range): 0.03 to 0.12 µg/mL (≈ 0.082 to 0.328 µM) | MIC90 [19]: 0.5 µg/mL (≈ 1.37 µM) | MIC50 ([19]; P. aeruginosa (CiproS), 24 isolates, read-out: MIC50): 0.12 µg/mL (≈ 0.328 µM) | MIC ([19]; P. aeruginosa (CiproS), 24 isolates, read-out: MIC Range): 0.015 to 0.5 µg/mL (≈ 0.041 to 1.37 µM) | MIC ([20]; read-out: MIC Range): 2 to 32 µg/mL (≈ 5.47 to 87.5 µM) | MIC50 ([20]; P. aeruginosa (CiproR), 20 isolates, read-out: MIC50): 4 µg/mL (≈ 10.9 µM) | MIC90 ([20]; P. aeruginosa (CiproR), 20 isolates, read-out: MIC90): 8 µg/mL (≈ 21.9 µM) | MIC90 [21]: 0.5 µg/mL (≈ 1.37 µM) | MIC ([21]; read-out: MIC Range): 0.06 to 0.5 µg/mL (≈ 0.164 to 1.37 µM) | MIC50 ([21]; B. fragilis, 18 isolates, read-out: MIC50): 0.25 µg/mL (≈ 0.683 µM) | MIC90 [22]: 0.25 µg/mL (≈ 0.683 µM) | MIC ([22]; read-out: MIC Range): 0.12 to 0.25 µg/mL (≈ 0.328 to 0.683 µM) | MIC50 ([22]; C. difficile, 10 isolates, read-out: MIC50): 0.25 µg/mL (≈ 0.683 µM) | MIC50 [23]: 0.12 µg/mL (≈ 0.328 µM) | MIC90 ([23]; C. perfringens, 13 isolates): 0.12 µg/mL (≈ 0.328 µM) | MIC ([23]; read-out: MIC Range): 0.06 to 0.12 µg/mL (≈ 0.164 to 0.328 µM) | MIC50 ([24]; read-out: MIC50): 0.008 µg/mL (≈ 0.0219 µM) | MIC90 ([24]; read-out: MIC90): 0.008 µg/mL (≈ 0.0219 µM) | MIC ([24]; read-out: MIC Range): 0.004 to 0.008 µg/mL (≈ 0.0109 to 0.0219 µM) | MIC50 [25]: 0.06 µg/mL (≈ 0.164 µM) | MIC90 [25]: 0.12 µg/mL (≈ 0.328 µM) | MIC ([25]; read-out: MIC Range): 0.03 to 0.12 µg/mL (≈ 0.082 to 0.328 µM) | MIC [26]: 0.015 to 0.03 µg/mL (≈ 0.041 to 0.082 µM) | MIC90 [27]: 0.015 µg/mL (≈ 0.041 µM) | MIC50 ([27]; N. gonorrhoeae, 12 isolates, read-out: MIC50): 0.004 µg/mL (≈ 0.0109 µM) | MIC ([27]; N. gonorrhoeae, 12 isolates, read-out: MIC Range): 0.004 to 0.015 µg/mL (≈ 0.0109 to 0.041 µM) | MIC90 [28]: 0.03 µg/mL (≈ 0.082 µM) | MIC50 ([28]; H. pylori, 17 isolates, read-out: MIC50): 0.015 µg/mL (≈ 0.041 µM) | MIC ([28]; H. pylori, 17 isolates, read-out: MIC Range): 0.008 to 0.03 µg/mL (≈ 0.0219 to 0.082 µM) | MIC90 [29]: 32 µg/mL (≈ 87.5 µM) | MIC50 ([29]; M. avium, 20 isolates, read-out: MIC50): 16 µg/mL (≈ 43.7 µM)

From patent publication US5977133A, “Pyridone antibiotic with improved safety profile” (priority 1998, dated 1999)
